Data reported in publication PMC11513920, “Building Metabolically Stable and Potent Anti-HIV Thioether-Lipid Analogues of Tenofovir Exalidex: A thorough Pharmacological Analysis” (Journal of Medicinal Chemistry, 2024).

What was measured:
[1] = Cellular cytotoxicity (cell viability, CellTiter 96 or resazurin); settings: human, CC50, HEK293T cells, compounds formulated with HSA (5:1)
Experimental: (§9) Second, HIV IC50 and cellular CC50 were determined with a pseudoviral, whole (HEK293T) cell, nonreplicative HIV assay, using the HIV-1 subtype C strain MJ4 (refer to Experimental Methods). To account for the unique amphiphilic properties of TXL and the novel HTP-based prodrugs, all compounds were formulated in a human serum albumin (HSA) solution (5:1 drug:protein).
(§10) Assessment of cytotoxicity and antiviral activity of all final compounds in vitro was conducted according to previously reported procedures.[39] In summary, human embryonic kidney (HEK293T) cells maintained in high glucose (25 mM), Dulbecco’s modified Eagle’s medium (DMEM) supplemented with fetal bovine serum (10%), sodium pyruvate (1 mM), L-glutamine (2 mM), HEPES (25 mM), and gentamicin (50 μg/mL) were used for determinations. The cells were maintained in an incubator at 37 °C under 5% CO2 in a humidified atmosphere. For both cytotoxicity and antiviral screening, all compounds were evaluated in duplicate in at least two independent experiments. All final compounds were formulated with human serum albumin (HSA, 5:1 compound to HSA molar ratio) and subsequently diluted with complete DMEM to 200 μM. Fifty microliters of test compound serial dilutions (3-fold) were prepared in 96-well culture plates, after which 50 μL of HEK293T cells (2 × 10^4 cells/well) was added. […] Cytotoxicity was then assessed by quantifying cell viability using the CellTiter 96 Aqueous One Solution Cell Proliferation Assay (Promega, Madison, WI) or resazurin sodium salt (cat# R7017, Merck, Darmstadt, Germany).[61] […] Antiviral activity was then assessed using a single-cycle, nonreplicating, envelope deleted HIV pseudoviral in vitro assay.[62],[63] The assay relies on the introduction of the firefly luciferase gene into HEK293T cells through infection with HIV-like viral particles, containing Reverse Transcriptase (RT) and Integrase (IN) from the HIV-1 subtype C strain MJ4.[64] The expression of the luciferase in the cells is directly proportional to the level of infection by the HIV-like viral particles and can be used to assess the inhibition of HIV-1 RT and IN. To evaluate anti-HIV activity, 3-fold serial dilutions of all final compounds were prepared in 50 μL over the noncytotoxic concentration range (as determined from the cytotoxicity screens described above) in 96-well culture plates. HEK293T cells (2 × 10^4 cells/well) and HIV-like viral particles, standardized to produce a luminescence signal of 1 × 10^6 relative light units (RLUs) in the growth medium only control, were combined, and 50 μL was added to the wells containing serially diluted test compounds. […] The expression of luciferase was subsequently quantified by adding 100 μL of the Bright-Glo Luciferase Assay substrate (Promega, Madison, WI) to each well of the 96-well plates. After incubation at rt for 3 min, luminescence was quantified on the GloMax Explorer Multimode Microplate Reader (Promega, Madison, WI).

[2] = Human liver microsome stability; settings: for half-life at 2.083 h, 3 µM / remaining at 2 h, 3 μM / half-life at 3 μM: human; for remaining at 2 h, 3 μM: HLM % remaining; for remaining at 2 h, 3 μM / HLM % remaining: relative percent remaining of prodrug at 120 min
Experimental: Human liver microsomes (HLMs, 20 mg/mL) and CD-1 mouse liver microsomes (MLMs, 20 mg/mL) were purchased from Xenotech. NADPH was purchased from Sigma-Aldrich and prepared in 10 mM stock solutions of distilled H2O (Invitrogen UltraPure). […] Test compounds and positive controls were initially dissolved in MeOH to make 10 mM stock solutions. Sample solutions were then further diluted in 70/30 MeOH/H2O to 500 μM. Next, the reactions were prepared by mixing human or mouse liver microsomes (55 μL) with potassium phosphate buffer (100 mM, 928 μL) in 1.5 mL Eppendorf tubes. The test compounds (6.6 μL of 500 μM solution) were subsequently added to the suspensions, and the reaction mixtures were incubated at 37 °C for 5 min. Afterward, the liver microsome reactions were initiated with 110 μL of 10 mM NADPH and further incubated at 37 °C for the designated time course of the study. […] Each test compound was run in tandem with positive and negative control experiments for quality assurance. Positive control reactions were conducted at a final volume of 550 μL for a single run of each time point.
For both LM and plasma stability assays, each data point was analyzed in duplicate using in-between blank washes to avoid carry over and to equilibrate the column for the subsequent runs. Averages of these duplicate for individual compounds at each time point were then normalized to the data at 0 min, representing 100% test compound remaining or 0% metabolism. Half-lives (t1/2) were calculated by plotting ln of % test compound remaining versus time and performing linear regression to determine slope.
Metabolic Stability Assays
Liver Microsome Stability
Liver Microsome Stability Assay Setup Example
Quenching Mixture: 100 µL MeOH with ISTD (2 µM d5-7-ethoxycoumarin).
Final Volume After Quenching: 200 µL (100 µL from reaction mixture + 100 µL quencher
solution; ISTD final concentration of 1.0 µM).

[3] = test system: HIV-1 subtype C strain MJ4; experiment: Single-cycle non-replicating HIV pseudoviral luciferase assay in HEK293T cells; settings: Human immunodeficiency virus 1, HEK-293T, read-out: HIV IC50
Experimental: as §9, §10

[4] = HepaRG cellular metabolic stability; settings: human, other cell line; for hepatocyte CLint at 20 μM: HepaRG Clint,u, calculated from cellular t1/2; for half-life at 20 μM: HepaRG t1/2, after 3 h loading at 20 μM, 37 °C
From the text: (§11) Naturally, due the metabolic complexity of HepaRG cells, we specifically analyzed prodrug cellular uptake and stability, as represented by Cmax and intrinsic clearance (Clint,u) accordingly (Figure 7 and Table 9).
(§12) The HepaRG cell line (HPRGC10, Thermo Fisher Scientific) was used to evaluate the cellular permeability and metabolic stability for select final compounds in vitro. The cells were initially thawed with working media composed of HepaRG Thaw, Plate, & General Purpose Medium Supplement (HPRG670), Williams Medium E (100 mL), and GlutaMax (1 mL), all purchased from Thermo Fisher Scientific. […] After the thawing medium was aspirated from each well, the cells were cultured for an additional 6 days with working media consisting of HepaRG Maintenance/Metabolism Medium Supplement (HPRG720), Williams Medium E (500 mL), and GlutaMax (1 mL), all purchased from Thermo Fisher Scientific. Upon completing the 7-day culture period, HepaRG cells were plated in enough wells to allow for duplicate analysis of prodrugs in two independent cellular uptake or metabolic stability experiments. All studied compounds were formulated with human serum albumin (HSA, 5:1 compound to HSA molar ratio) and subsequently diluted to a 20 μM final concentration with assay medium composed of serum-free INVITROGRO HI Medium and TORPEDO Antibiotic Mix purchased from BioIVT. For cellular uptake determinations, the maintenance/metabolism medium was first aspirated from each well, and then the plated cells were spiked with 1.0 mL of test compound stock solution. Subsequently, the plate was incubated at 37 °C under 5% CO2 environment over the desired time course (seven data points/compound). Blank wells not treated with prodrug were included in assay runs as controls and initial time points (0 min). At each time point, the test compound solution was removed from the appropriate wells, and the plated cells were washed with 1.0 mL of DPBS twice. The HepaRG cells were then extracted with 500 μL of cold ISTD solution (1 μM 7-ethoxy-d5-coumarin in 70/30 MeOH/H2O), and the quenched aliquots were centrifuged at 15,000 g for 10 min at 4 °C. […] After obtaining prodrug Cmax and Tmax values from the cellular uptake assay, HepaRG metabolic stability was then assessed. Following the initial 7-day culture procedure, the maintenance/metabolism medium was aspirated from each well, and the plated cells were spiked with 1.0 mL of test compound stock solution. […] The test compound solution was then removed from each well and replaced with untreated dilution medium (i.e., serum-free INVITROGRO HI Medium and TORPEDO Antibiotic Mix), initializing the stability determination. The HepaRG plate was once more incubated at 37 °C under 5% CO2 atmosphere over the desired time course (nine data points/compound), and sample preparation and analysis were handled in identical fashion to cellular uptake experiments.

HepaRG cells [5] = experiment: HepaRG cellular metabolic stability; settings: for HepaRG t1/2: after 3 h loading at 20 μM, 37 °C
From the text: as §11, §12

HepaRG cellular uptake = settings: human, HepaRG Cmax, 20 μM, HSA formulation 5:1, recorded after 3 h incubation
From the text: as §11, §12

HepaRG cells [6] = experiment: HepaRG cellular uptake; settings: 20 µM
From the text: as §11, §12

[7] = Solubility in antiviral/cytotoxicity assay medium; format: physicochemical; settings: despite formulation with HSA
From the text: Nevertheless, due to the promising metabolic profile of 2i and 2j, our lab is continuing to analyze TXL analogs with chain lengths beyond 20 atoms and will disclose a report in the future. However, for the sake of this study, 2a remained as the most pharmacologically attractive starting point for ω-functionalization.

Human plasma stability = format: in vitro ADME; settings: both sexes, human, plasma; 3 μM, 37 °C, 240 min course; read-out: human plasma t1/2
Experimental: (§1) Human plasma (lithium heparin (LiHep) mixed, gender pooled, 0.2 μm filtered) and mouse plasma (BALB/C, LiHep mixed, male pooled, 0.2 μm filtered) were purchased from BioIVT. Procaine (Sigma-Aldrich) served as a positive control for both human and mouse plasma experiments. […] Next, the human or mouse plasma (994 μL) was aliquoted into 1.5 mL Eppendorf tubes with duplicates (reactions A and B) being prepared for each compound. The plasma was then incubated at 37 °C for 10 min. […] This procedure provided duplicate experiments with a final volume of 1000 μL (<0.2% organic solvent content) and a final test compound concentration of 3 μM. Aliquots (100 μL) were removed from each reaction mixture at 0, 30, 60, 120, and 240 min time intervals and quenched with 150 μL of cold ISTD solution (2 μM 7-ethoxy-d5-coumarin in MeOH). […] The positive control reaction was conducted at a final volume of 1000 μL for a single run of each time point. Finally, the negative control experiment was conducted with test compounds in Dulbecco’s phosphate buffered saline without calcium and magnesium (DPBS, Fisher Scientific, 143 μL) and analyzed at the 240 min time point.
(§2) Plasma Stability Assay Setup Example
(§3) Test Compound: 994 µL Human or Mouse Plasma + 6.0 µL TC (500 µM, Vial A).
(§4) 994 µL Human or Mouse Plasma + 6.0 µL TC (500 µM, Vial B).
(§5) Positive Control: 994 µL Human or Mouse Plasma + 6.0 µL Procaine (500 µM).
(§6) Negative Control: 142 µL DPBS (1X, pH 7.1-7.3) + 0.9 µL TC (500 µM).
(§7) Quenching Mixture: 150 µL MeOH with ISTD (2 µM d5-7-ethoxycoumarin).
(§8) Final Volume After Quenching: 250 µL (100 µL from reaction mixture and 150 µL quencher
solution; ISTD final concentration of 1.2 µM).
Human Plasma Stability of Compound 2a at 37 °C
Figure S29. In vitro human plasma stability of 2a (5 points over 240 min) with procaine serving

Mouse plasma stability = format: in vitro ADME; settings: male, BALB/C, mouse, plasma; 3 μM, 37 °C, 240 min course; read-out: mouse plasma t1/2
Experimental: as §1, §2, §3, §4, §5, §6, §7, §8
solution; ISTD final concentration of 1.2 µM). […]

HEK293T cells = experiment: Cellular cytotoxicity (cell viability, CellTiter 96 or resazurin); settings: HEK293T cells, 48 h, compounds formulated with HSA (5:1)
Experimental: as §9, §10

[8] = microsomes, HLM t1/2, HLM 1 mg/mL, 3 μM compound, NADPH, 37 °C, 120 min course

Structure (SMILES)	CC50 at 48 h [1] [µM]	half-life at 2.083 h, 3 µM [2, 8] [h]	remaining at 2 h, 3 μM ([2]; microsomes) [%]	half-life at 3 μM [2, 8] [h]	also measured
CCCCCCCSCCCCCCCCCCCCOP(=O)(O)CO[C@H](C)Cn1cnc2c(N)ncnc21.N [2e]	> 100	0.3433 ± 0.00167	–	–	–
C[C@H](Cn1cnc2c(N)ncnc21)OCP(=O)(O)OCCCSCCCCCCCCCCC#Cc1ccc(F)cc1.N [15g]	> 100	–	67	> 2	–
C[C@H](Cn1cnc2c(N)ncnc21)OCP(=O)(O)OCCCSCCCCCCCCCCCCC#CC(C)(C)C.N [15e]	> 100	–	71	> 2	IC50 [3]: 0.196 µM; hepatocyte CLint at 20 μM [4]: 18 to 19 µL/min/1e6 cells; half-life at 20 μM [4]: 1.12 to 1.18 h; HepaRG t1/2 (HepaRG cells [5]): 1.11 ± 0.0833 h; HepaRG Clint,u (HepaRG cells [5]; calculated from cellular t1/2): 18.9 μL/min/million cells; Cmax at 3 h, 20 μM (HepaRG cellular uptake): 242 ± 5.5 ng/mL; mean prodrug concentration in HepaRG cells (HepaRG cells [6]; 0.5 h): 169.76 ng/mL; mean prodrug concentration in HepaRG cells (HepaRG cells [6]; 1 h): 211.84 ng/mL; mean prodrug concentration in HepaRG cells (HepaRG cells [6]; 2 h): 233.02 ng/mL; mean prodrug concentration in HepaRG cells (HepaRG cells [6]; 3 h): 241.98 ng/mL; mean prodrug concentration in HepaRG cells (HepaRG cells [6]; 4 h): 281.89 ng/mL; mean prodrug concentration in HepaRG cells (HepaRG cells [6]; 6 h): 321.96 ng/mL
C[C@H](Cn1cnc2c(N)ncnc21)OCP(=O)(O)OCCCSCCCCCCCCCCC#CC1CCCCC1.N [15h]	> 100	–	67	> 2	HLM % remaining [2]: 70%
C[C@H](Cn1cnc2c(N)ncnc21)OCP(=O)(O)OCCCSCCCCCCCCCCCCC#C[Si](C)(C)C.N [15c]	> 100	–	82	> 1.58	IC50 [3]: 0.024 to 0.028 µM; HLM t1/2 ([2]; HLM 1 mg/mL, 3 μM compound, NADPH, 37 °C, 120 min course): > 2 h
CCCCCCCCCCCCCCCCCCCCSCCCOP(=O)(O)CO[C@H](C)Cn1cnc2c(N)ncnc21.N [2j]	–	–	95	> 2	solubility in the assay medium [7]: poor solubility; HLM % remaining [2]: > 95%
CCN(CC)CCOC(=O)c1ccc(N)cc1 [Procaine, reference compound]	–	–	–	–	half-life at 3 μM (Human plasma stability): 24 s; half-life at 3 μM (Mouse plasma stability): 42 s
C[C@H](Cn1cnc2c(N)ncnc21)OCP(=O)(O)OCCCSCCCCCCCCCCCOc1ccc(F)cc1.N [23c]	> 100	0.82833 ± 0.0005	–	0.8 to 0.833	–
CCCCCCCCCCCCCCCCCCSCCCOP(=O)(O)CO[C@H](C)Cn1cnc2c(N)ncnc21.N [2i]	–	–	95	> 2	solubility in the assay medium [7]: poor solubility; HLM % remaining [2]: > 95%
CCCCCCCCCCCCCSCCCCCCOP(=O)(O)CO[C@H](C)Cn1cnc2c(N)ncnc21.N [2c]	> 100	1.1 ± 0.05	–	1.1	–
CC(C)[Si](C#CCCCCCCCCCCCSCCCOP(=O)(O)CO[C@H](C)Cn1cnc2c(N)ncnc21)(C(C)C)C(C)C.N [15d]	59.3 ± 2.4	–	> 95	> 2	–
CCCCCCCCCCSCCCCCCCCCOP(=O)(O)CO[C@H](C)Cn1cnc2c(N)ncnc21.N [2d]	> 100	0.222 ± 0.00833	–	–	–
C[C@H](Cn1cnc2c(N)ncnc21)OCP(=O)(O)OCCCSCCCCCCCCCCCSc1ccccc1.N [23b]	> 100	0.132 ± 0.00333	–	–	–
C[C@H](Cn1cnc2c(N)ncnc21)OCP(=O)(O)OCCCSCCCCCCCCCCCCCCC(C)(C)C.N [16e]	24 ± 1.4	–	95	> 2	IC50 [3]: 0.177 µM; HLM % remaining [2]: > 95%; hepatocyte CLint at 20 μM [4]: 10.2 µL/min/1e6 cells; half-life at 20 μM [4]: 2.05 h; HepaRG t1/2 (HepaRG cells [5]): 2.052 ± 0.05 h; Cmax at 3 h, 20 μM (HepaRG cellular uptake): 1100 ± 63.6 ng/mL; mean prodrug concentration in HepaRG cells (HepaRG cells [6]; 0.5 h): 625.22 ng/mL; mean prodrug concentration in HepaRG cells (HepaRG cells [6]; 1 h): 984.12 ng/mL; mean prodrug concentration in HepaRG cells (HepaRG cells [6]; 3 h): 1100.03 ng/mL; mean prodrug concentration in HepaRG cells (HepaRG cells [6]; 4 h): 1000.18 ng/mL; mean prodrug concentration in HepaRG cells (HepaRG cells [6]; 6 h): 1196.77 ng/mL
C#CCCCCCCCCCCCCCCSCCCOP(=O)(O)CO[C@H](C)Cn1cnc2c(N)ncnc21 [15b]	–	–	–	–	IC50 [3]: 0.024 to 0.028 µM; half-life at 3 μM ([2]; liver microsomes): > 1.58 h; half-life at 2.083 h, 3 µM ([2]; liver microsomes): 1.6 ± 0.03 h
CCCCCCCCCCCCSCCCOP(=O)(O)CO[C@H](C)Cn1cnc2c(N)ncnc21.N [2g]	> 100	0.188 ± 0.00333	–	–	–
CCCCSCCCCCCCCCCCCCCCOP(=O)(O)CO[C@H](C)Cn1cnc2c(N)ncnc21.N [2f]	> 100	0.32833 ± 5e-05	–	–	–
CCCCCCCCCCCCCCCCCSCCOP(=O)(O)CO[C@H](C)Cn1cnc2c(N)ncnc21.N [2b]	29	1.1 ± 0.0433	–	1.1	CC50 (HEK293T cells): 28.6 ± 3.7 µM
C[C@H](Cn1cnc2c(N)ncnc21)OCP(=O)(O)OCCCSCCCCCCCCCCCCc1ccccc1.N [16f]	> 100	1.14 ± 0.00167	–	1.13	–
C[C@H](Cn1cnc2c(N)ncnc21)OCP(=O)(O)OCCCSCCCCCCCCCCC#Cc1ccccc1.N [15f]	> 100	1.19 ± 0.0183	–	1.18	–
CCCCCCCCCCCCCCSCCCOP(=O)(O)CO[C@H](C)Cn1cnc2c(N)ncnc21.N [2h]	> 100	0.26 ± 0.00167	–	–	–
C[C@H](Cn1cnc2c(N)ncnc21)OCP(=O)(O)OCCCSCCCCCCCCCCCOc1ccccc1.N [23a]	> 100	0.14 ± 0.00167	–	0.133	–
COC(=O)CCCCCCCCCCCCCCCSCCCOP(=O)(O)CO[C@H](C)Cn1cnc2c(N)ncnc21.N [23e]	> 100	0.0917 ± 0.005	–	–	–
C[C@H](Cn1cnc2c(N)ncnc21)OCP(=O)(O)OCCCSCCCCCCCCCCCOC1CCCCC1.N [23d]	> 100	0.7983 ± 0.00667	–	0.8 to 0.833	–
